Source: ChEMBL document CHEMBL1151414, “Plant anticancer agents. XXIII. 6 alpha-senecioyloxychaparrin, a new antileukemic quassinoid from Simaba multiflora” (1983)
In brackets after ≈: the same amount, converted by molar mass.

Assays:
Format in all cases: functional
KB = assay: Cytotoxicity against human KB cells by NCI method; settings: read-out: ED50 (the source's name)
P388 [1] = assay: In vivo antitumor activity against mouse P388 cells at 3.0 mg/kg relative to control
P388 [2] = assay: In vivo antitumor activity against mouse P388 cells at 1.5 mg/kg relative to control
P388 [3] = assay: In vivo antitumor activity against mouse P388 cells at 0.75 mg/kg relative to control
P388 [4] = assay: In vivo antitumor activity against mouse P388 cells at 0.38 mg/kg relative to control
P388 [5] = assay: In vivo antitumor activity against mouse P388 cells at 2.5 mg/kg relative to control
P388 [6] = assay: In vivo antitumor activity against mouse P388 cells at 1.25 mg/kg relative to control
P388 [7] = assay: In vivo antitumor activity against mouse P388 cells at 0.63 mg/kg relative to control
P388 [8] = assay: In vivo antitumor activity against mouse P388 cells at 0.31 mg/kg relative to control

Row | SMILES | EC50 (KB) [ng/mL] | T/C (P388 [1]) [%] | T/C (P388 [2]) [%] | T/C (P388 [3]) [%] | T/C (P388 [4]) [%] | T/C (P388 [5]) [%] | T/C (P388 [6]) [%] | T/C (P388 [7]) [%] | T/C (P388 [8]) [%]
1 | CC(C)=CC(=O)O[C@@H]1[C@H]2C(C)=C[C@H](O)[C@H](O)[C@]2(C)[C@H]2[C@]3(O)OC[C@@]24[C@@H]1OC(=O)C[C@H]4[C@@H](C)[C@H]3O | 3 (≈ 6.27 nM) | 133 | 133 | 160 | 142 | – | – | – | –
2 | CC(C)=CC(=O)O[C@@H]1[C@H]2C(C)=CC(=O)[C@H](O)[C@]2(C)[C@H]2[C@]3(O)OC[C@@]24[C@@H]1OC(=O)C[C@H]4[C@@H](C)[C@H]3O | 3 (≈ 6.3 nM) | – | – | – | – | 136 | 133 | 176 | 145
3 | CC1=CC(=O)[C@@H](O)[C@]2(C)[C@H]3[C@@]4(O)OC[C@@]35[C@@H](C[C@@H]12)OC(=O)C[C@H]5[C@@H](C)[C@H]4O [CHAPARRINONE] | 25 (≈ 66.1 nM) | – | – | – | – | – | – | – | –
